Reference: PMC5905120, “An innovative immunotherapeutic strategy for ovarian cancer: CLEC10A and glycomimetic peptides” (Journal for Immunotherapy of Cancer, 2018)
“Also recorded” adds a separate entry of the source. Bridges are numbered along the chain shown (N, C = ends). Roman numbers before positions name the chains, in order. Where no end group is shown, it is not given here.

Columns and labels:
[1] = test system: ID8 ovarian cancer in C57BL/6 mice; test: Murine ovarian cancer model (ID8), sv6D and paclitaxel study; assay type: in vivo, mouse (C57BL/6)
From the text: Mantel-Cox log-rank test, p (sv6D vs. PBS) = < 0.0001. Paclitaxel, brown; sv6D from day 45, blue; paclitaxel plus sv6D from day 100, purple; cremophor, yellow; PBS, black

[2] = test system: ASGPR-1; settings: cited from earlier work
Description: The type II C-type lectin asialoglycoprotein receptor-1 (ASGPR-1, Ashwell-Morell receptor, CLEC4H1) on hepatic cells also binds GalNAc-containing structures. ASGPR-1 has a 60-fold greater preference for GalNAc over Gal. Each healthy rat hepatocyte expresses 4 to 5 × 10^5 molecules of ASGPR-1 as binding sites for asialo-orosomucoid or 1.8 × 10^6 molecules as determined by an ASGPR-1-targeted antibody, which provides a surface concentration for the receptor of 0.8 to 1 μM. […] Corresponding values for binding of svL4 to CLEC10A and ASGPR-1 of 0.24 ± 0.04 μM and 0.21 ± 0.03 μM, respectively, were obtained. […] Asialofetuin, a multi-glycosylated pro ...

[3] = test system: ASGPR-1; test: Inhibition of svL4 binding to ASGPR-1; design: species or system human; settings: 75 μM asialofetuin, 0.2 μM svL4
Description: Solid-phase binding assays were performed with streptavidin-, protein A/G-, or Nickel-coated microtiter plates (Pierce). His-tagged or Fc-fusion recombinant receptors (R&D Systems, Minneapolis, MN) were reconstituted in PBS. Sufficient receptors were added to wells to saturate the coating. His-tagged receptors were added to each well at a 5-fold excess over the stated capacity of the Ni coating to minimize non-specific binding of the peptide. […] The wells were washed four times with binding buffer and then incubated with 50 μL of 1 μg/mL streptavidin conjugated with peroxidase (Sigma-Aldrich) for 1 h. The wells were washed five times with binding buffer and 50 μL of peroxidase substrate (1-Step™ Ultra TMB, Pierce) were added. After several minutes to allow color development, the reaction was stopped with 50 μL 1 M H3PO4 and absorbance was measured at 450 nm. Bound streptavidin was quantitated by the specific activity of peroxidase (absorbance/ng protein conjugate/min) under the conditions of the assay.
Corresponding values for binding of svL4 to CLEC10A and ASGPR-1 of 0.24 ± 0.04 μM and 0.21 ± 0.03 μM, respectively, were obtained.

[4] = biological target: T1, human CLEC10A (Homo sapiens, UniProt Q8IUN9); test: Solid-phase binding to recombinant human CLEC10A; settings: for binding to CLEC10A: Fig. 2a, representative of 3 independent experiments
T1 construct: purchased R&D Systems
T1 sequence (Q8IUN9 61-316 limits assumed): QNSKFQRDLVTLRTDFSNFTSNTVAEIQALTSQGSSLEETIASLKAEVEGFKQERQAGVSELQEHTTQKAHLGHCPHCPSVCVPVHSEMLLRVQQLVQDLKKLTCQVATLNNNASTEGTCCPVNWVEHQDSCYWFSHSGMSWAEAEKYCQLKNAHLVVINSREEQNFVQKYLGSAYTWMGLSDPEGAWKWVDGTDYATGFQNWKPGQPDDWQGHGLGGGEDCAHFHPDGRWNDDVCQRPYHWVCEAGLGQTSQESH
Description: (§1) Solid-phase binding assays were performed with streptavidin-, protein A/G-, or Nickel-coated microtiter plates (Pierce). His-tagged or Fc-fusion recombinant receptors (R&D Systems, Minneapolis, MN) were reconstituted in PBS. Sufficient receptors were added to wells to saturate the coating. His-tagged receptors were added to each well at a 5-fold excess over the stated capacity of the Ni coating to minimize non-specific binding of the peptide. Wells were washed three times with binding buffer (25 mM Tris HCl, pH 7.4, 150 mM NaCl, 0.05% Tween-20) to remove unbound receptor and 50 μL of 2 μM biotinylated peptide in binding buffer were added and allowed to incubate for 1 h. The wells were washed four times with binding buffer and then incubated with 50 μL of 1 μg/mL streptavidin conjugated with peroxidase (Sigma-Aldrich) for 1 h. The wells were washed five times with binding buffer and 50 μL of peroxidase substrate (1-Step™ Ultra TMB, Pierce) were added. After several minutes to allow color development, the reaction was stopped with 50 μL 1 M H3PO4 and absorbance was measured at 450 nm. Bound streptavidin was quantitated by the specific activity of peroxidase (absorbance/ng protein conjugate/min) under the conditions of the assay.
(§2) Solid-phase binding assays were performed with recombinant human receptors. Three variations of the binding assay were used in this study, all of which allowed the arms of the tetravalent peptide to have full flexibility. (i) Biotinylated peptide was bound in microtiter wells coated with streptavidin and incubated with recombinant human receptors. After extensive washing, the bound receptor was measured by peroxidase conjugated to a receptor-specific antibody. (ii) The extracellular domains of receptors, which were fused with the Fc domain of immunoglobulin IgG, were bound in wells coated with protein A/G. Biotinylated peptide was incubated with the receptors and, after extensive washing, bound peptide was measured with streptavidin conjugated with peroxidase. Or (iii), recombinant receptors with a poly-His tag were bound to Nickel-coated wells and incubated with biotinylated peptide. svL4 and sv6D contain His residues (see Table 1) and can bind to the Ni coating, which was minimized by adding sufficient poly-His-tagged receptor to saturate the Ni coating.

[5] = Antigenicity assay in mouse sera; assay type: in vivo; settings: 1 nmole/g s.c., alternate days for 3 months; sera of 8 treated mice, Fig. 8
Description: The sequence of one arm of svL4 or sv6D was conjugated to keyhole limpet hemocyanin (KLH) and injected into rabbits at two week intervals (total of 3 injections) (New England Peptide, Inc., Gardner, MA). Two weeks after the final injection, sera were prepared. Mice were injected with a peptide every other day over a period of 3 months (total ~ 45 injections), blood was then collected by cardiac puncture and sera were prepared. Rabbit serum was diluted 1:10, whereas mouse serum was diluted 1:1 or 1:5 with PBS containing 0.05% Tween-20 (PBST). Sera were incubated in microtiter wells coated with protein A/G (Pierce) for 90 min. The wells were washed three times with PBST, and then incubated with 50 μL of 1 μM biotinylated svL4 or sv6D for 1 h. The wells were washed four times with PBST, incubated 1 h with 1 μg/mL streptavidin-peroxidase conjugate, and washed four times with PBST. Peroxidase activity was assayed as above under Binding Assays.
Fig. 8 Test for antigenicity of svL4 and sv6D. Anti-sera were generated in rabbits against KLH-conjugates of the sequences of svL4 or sv6D and diluted 1:10. Mouse sera were collected after alternate-day injections of svL4 over 3 months, diluted 1:1 with PBS and added to protein-A/G-coated wells. Biotinylated svL4 or sv6D was added to wells and bound peptide was detected with a streptavidin-peroxidase conjugate. […]

[6] = biological target: T2, human ASGPR-1 (Homo sapiens, UniProt P07306); test: Solid-phase binding to recombinant human ASGPR-1; settings: for binding to ASGPR-1: Fig. 2a, representative of 3 independent experiments
T2 construct: purchased R&D Systems
T2 sequence (P07306 62-291 limits assumed): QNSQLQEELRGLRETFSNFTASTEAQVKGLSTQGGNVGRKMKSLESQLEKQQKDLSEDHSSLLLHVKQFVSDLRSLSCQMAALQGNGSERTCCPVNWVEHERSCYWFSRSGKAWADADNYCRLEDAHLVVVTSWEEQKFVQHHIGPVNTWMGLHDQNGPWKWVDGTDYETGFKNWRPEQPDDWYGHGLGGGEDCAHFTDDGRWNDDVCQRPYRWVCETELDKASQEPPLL
Description: as §1, §2

[7] = test system: PD-1; settings: patients with ovarian cancer; ref [106], [107]; cited from earlier work
From the text: Paclitaxel is currently used as a chemotherapeutic drug that acts by stabilizing microtubules and arresting cells in the cell cycle at the G2/M boundary. Paclitaxel is often combined with a platinum-based drug. Patients treated with these drugs experience a significant level of toxicity. […] However, because sv6D induces proliferation of immune cells, initiation of treatment should perhaps occur after the cell cycle inhibitory action of paclitaxel has dissipated. Pat ...

[8] = test system: peritoneal cells of C57BL/6 mice; test: Peritoneal immune cell populations by flow cytometry, C57BL/6 mice; assay type: in vivo, mouse (C57BL/6); settings: 1 nmole/g s.c., 5-day period, Fig. 5 (non-binding control)
Description: Healthy C57BL/6 male mice, 10 weeks old, were injected subcutaneously with peptides on alternate days. Peritoneal cells were isolated from mice 24 h after dosing by injecting ice cold PBS (containing 3% FBS) into the peritoneal cavity, gently massaging the abdomen, and then collecting the fluid, which was transferred into K2EDTA-treated tubes for evaluation of specific biomarkers. Cells from three mice in each group were pooled, counted and divided among FACS tubes (1 × 10^6 cells per tube). Cells were washed once in PBS containing 3% FBS, then stained with 0.25 to 1 μg of fluorescently conjugated antibody per 10^6 cells in 100 μL of buffer as recommended by the manufacturer (Table 2).
Cells were incubated with the antibodies for 30 min at 4 °C in the dark. Following staining, the cells were washed two times with PBS/3% FBS and immediately analyzed with a MACSQuant flow cytometer (Miltenyi Biotech, Inc., San Diego, CA). Compensation was performed using single stain tubes for each color present in the analysis as well as an unstained control sample. Collection of flow cytometric data and analysis with FlowJo software, version 10.0.6 (FlowJo, LLC, Ashland, OR) were performed by Biomodels LLC (Watertown, MA).
To examine whether increases occurred in mature immune cells, peritoneal cells from Balb/c and C57BL/6 mice were analyzed by flow cytometry after cells were stained with the markers listed in Table 2. […] To explore this observation more extensively, svL4 or sv6D was injected into C57BL/6 mice on day 0, 2 or 4. Peritoneal cells were examined by flow cytometry 24 h after each injection. Shown in Fig. 5 are results expressed as cell counts for F4/80 CD11b CD86 (mature, active macrophages); CD11c (DCs); CD11c CD 86 (activated DCs); CD4 CD69 (activated T cells); CD8 CD69 (activated cytotoxic T cells); NK1.1 CD3^+ CD69 (activated NKT cells); NK1.1 CD3^− CD69 (activated NK cells); CD19 (B cells); and CD19 CD73 CD80 CD273 (memory B cells). The numbers of these mature, activated cells continued to increase with each injection.
Fig. 5 Expansion of peritoneal cells in C57BL/6 mice. Mice were injected subcutaneously at a dose of 1 nmole/g body weight of svL4, sv6D or svC1. Cells in each population recovered in a peritoneal lavage are expressed as cell counts (in thousands). Cells from three mice in each treatment group were pooled for analysis. The number of cells in each population was normalized to the average recovery of total cells from all groups. For each cell type, the left-hand, middle and right-hand set of bars represent samples from mice treated with svL4, sv6D or svC1, respectively. Mice were injected on days 0, 2 and 4, and cells were collected 24 h after each injection. Day 1, open bar; day 3, grey bar; day 5, black bar. Populations that express activation markers are indicated by an asterisk

[9] = biological target: recombinant human asialoglycoprotein receptor-1 (ASGPR-1) (human) (UniProt P07306); test: ELISA; solid-phase binding assay as a function of the concentration of peptide; KD from double-reciprocal plots of the binding curves; extensive wash steps
[10] = biological target: recombinant human CLEC10A (C-type lectin receptor family member 10A) (human) (UniProt Q8IUN9); test: as above
[11] = double-reciprocal plot of binding vs. peptide concentration, biotinylated peptide, binding buffer 25 mM Tris HCl pH 7.4, 150 mM NaCl, 0.05% Tween-20, 1 h, streptavidin-peroxidase 450 nm, ± S.D., 4 separate assays

## CC(=O)O[C@H]1C(=O)[C@@]2(C)[C@H]([C@H](OC(=O)c3ccccc3)[C@]3(O)C[C@H](OC(=O)[C@H](O)[C@@H](NC(=O)c4ccccc4)c4ccccc4)C(C)=C1C3(C)C)[C@]1(OC(C)=O)CO[C@@H]1C[C@@H]2O [paclitaxel]
[1]; aggressive disease, two weeks of treatment, sv6D 0.1 nmole/g s.c. alternate days, paclitaxel 18 μg/g i.p. days 45, 47, 49
  body weight increase (ascites): had not significantly increased
[1]; paclitaxel 18 μg/g i.p. days 45, 47, 49, t test, Fig. 6a
  ρ of body weight on day 58 vs. PBS or no treatment: < 0.05
[1]; paclitaxel alone, PBS control 122 days, Fig. 6c
  median survival: approximately 141 days
[1]; t test, Fig. 6b
  ρ of body weight on day 121, paclitaxel vs. PBS: < 0.05

## Asialofetuin: multi-glycosylated protein
[2]; ASGPR-1, ref [43]
  IC50: 45600 ± 2700 nM
[3]
  inhibition of binding of svL4 to ASGPR-1: 53%

## I: NQHTPRGGGSKK-NH2 / II: NQHTPRGGGSK / III: NQHTPRGGGS / IV: NQHTPRGGGS (amide I:11-IV:C, I:12-II:C, II:11-III:C) [sv6D]
[4]; [11]
  Kd: 150 ± 20 nM
[5]
  antibodies that bind the peptides in mouse sera: negative
[6]; [11]
  Kd: 120 ± 10 nM

## nivolumab: antibody against the inhibitory receptor PD-1
[7]
  overall response rate: 15%

## CC(=O)N[C@H]1C(O)O[C@H](CO)[C@H](O)[C@@H]1O (mixture of isomers) [GalNAc, N-acetylgalactosamine]
[2]; ref [39]
  preference of ASGPR-1 for GalNAc over Gal: 60 fold

## [(VQATQS- GGGS)2K]2K-NH2 [svC1]
[4]
  binding to CLEC10A: near the level of blank wells; also recorded: does not bind to CLEC10A
[8]
  expansion of specific cell types: did not increase significantly
[6]
  binding to ASGPR-1: near the level of blank wells

## [(VSNQH- GGGS)2K]2K-NH2 [svD2]
[4]
  binding to CLEC10A: bound weakly
[6]
  binding to ASGPR-1: bound weakly

## pembroliumab: antibody against the inhibitory receptor PD-1
[7]
  overall response rate: 15%

B1: svL4, tetravalent peptide [(…-GGGS)2K]2K-NH2 (designed binder)
chain 1: VQATQSNQHTPRGGGS
chain 2: Lys-Lys-Lys-NH2
modifications: not fully specified; printed as [(VQATQSNQHTPR-GGGS)_2_K]_2_K-NH_2_; also: tetravalent: four arms joined by C-termini to branched tri-lysine core
[9]
  Kd: 210 nM
[10]
  Kd: 240 nM
